# Measured values as given in US8685666B2, “ARL-1 specific antibodies and uses thereof” (The Board of Trustees of Southern Illinois University, priority 2007, dated 2014).
# Entries after “also recorded” stand apart in the source; their conditions may differ.
# Tests used:
# [1] = tested on: AKR1B10 (ARL-1) secretion; test: ARL-1 secretion into culture medium (sandwich ELISA and Western blot); format: cell-based, human
# Experimental: Soluble proteins are secreted by either the classical or nonclassical pathway (Nickel et al., Eur J. Biochem. 270: 2109-2119, 2003). In the classical protein secretion pathway, a secretory protein is translocated by an N-terminal signal peptide into endoplasmic reticulum and Golgi complex concomitant with protein synthesis. Thus, this pathway is affected by inhibitors of protein synthesis and protein transport from ER to Golgi. […] HCT-8 cells (1.25×10^5) were cultured in 12-well plates overnight and the next day the cells were exposed to 15 μg/ml of protein synthesis inhibitor cycloheximide in fresh serum-free medium. Medium was collected at different time points for sandwich ELISA and Western blot analysis. […] Next, the effects of an ER-Golgi pathway inhibitor were examined. HCT-8 and NCI-460 cells (1.25×10^5) were cultured in 12-well plates overnight and then exposed to an ER-Golgi protein transport inhibitor brefeldin A at 0, 2, or 10 μg/ml in fresh serum-free medium for 6 hour. Medium was collected for sandwich ELISA and Western blot analysis. […] Statistic analysis was performed using Student's t test or Chi square tests, as appropriate, with INSTAT statistical analysis package (Graph Pad Software, CA), for statistical significance at p<0.05.
# At 30 min before harvest, ATP (1 mM) was added and the medium was subjected to sandwich ELISA and Western blot analysis. In addition, HCT-8 cells (1.25×10^5) were seeded into 12-well plates and exposed to Ca^2+ ions (100 μM) or ionomycin at 1 or 2 μM in serum-free medium for 30 min and the medium was harvested for sandwich ELISA and Western blot analysis. […]
# Proteins that are secreted via the lysosome-mediated pathway are often translocated into lysosomes by the ABC transporters (Hamon et al., Blood 90: 2911-2915, 1997). To understand the transmembrane mechanism of ARL-1, HCT-8 cells (1.25×10^5) were cultured in 12-well plates overnight and then exposed to ABC transporter inhibitor GLIB (glibenclamide) or DIDS (4,4′-diisothiocyanatostilbene-2,2′-disulfonic acid) (Sigma, Mo.) in serum-free medium for 2 hours. ATP (1 mM) was added 30 min before harvest. Medium and cells were collected for sandwich ELISA and Western blot analysis.
# [2] = tested on: HCT-8 cells; test: Mechanism of acrolein-induced cell death in HCT-8 cells with ARL-1 knockdown (flow cytometry, LDH efflux); format: cell-based, human; conditions: 25 μM
# Experimental: The mechanisms of cell death induced by reactive carbonyls were investigated by flow cytometry and lactate dehydrogenase leakage assay. For flow cytometry assay, cells (with ARL-1 knockdown) were incubated with acrolein (25 μM) for 24 hours. After medium was gently removed, cells were washed with cold PBS and trypsinized. Cells in PBS and trypsin digestion were pooled, washed with PBS twice at 1200 rpm for 10 min, and then subjected to immediate propidium iodide (PI) and annexin V-FITC staining for 10 minutes in the dark as set forth in Yuan et al. (2004, Oncogene 23: 5843-5852, 2004). FACScan analysis was performed using a FACScan cytometer (Becton Dickinson, Calif.).
# For lactate dehydrogenase (LDH) efflux assays, cells were plated at 5×10^4 cells/well in 12-well plates and exposed to 25 μM of acrolein for 12 hours. Medium was collected and cells were lysed for 10 min in 0.5% (v/v) Triton X-100 in 0.1 M potassium phosphate buffer (pH 7.4). Supernatants were collected by centrifugation at 10,000×g for 5 min. LDH activity in medium and cell lysates was measured using LDH assay kit (Roche, Ind.). […] Absorbance at 490 nm was read in a microplate reader (Bio-Rad, CA), with 650 nm as a reference wavelength. LDH release was calculated as: LDH release (%)=[LDH in medium/(LDH in medium+LDH in cell lysate)]×100 (Koh and Choi, 1987, J Neurosci Methods 20: 83-90).
# [3] = HCT-8 cells, serum-free medium 30 min, Ca2+ ions 100 μM, ionomycin 1 or 2 μM
# [4] = HCT-8 cells, serum-free medium 2 hours, ATP 1 mM added 30 min before harvest
# [5] = HCT-8 cells, serum-free medium, ATP 1 mM 30 min before harvest, Mg2+ 2 mM and/or EDTA 1 mM for 2 hours
structure (smiles),measurement,setting,value
C[C@H](CCC(=O)O)C[C@H](C)C[C@H](C)C(=O)/C=C(\O)[C@H](C)C[C@H](C)C/C=C/[C@@H](C)[C@@H](O)[C@@H](C)[C@@H](O)C[C@@H]1CC[C@@](C)([C@H]2CC[C@@](C)([C@@H](C)O)O2)O1 [ionomycin],ARL-1 secretion,[1]; [3],significantly stimulated
[Ca+2] [Ca^2+ ions],ARL-1 secretion,[1]; [3],significantly stimulated
C[C@@H]1C[C@@H]([C@H](O)CC2CC(=O)NC(=O)C2)C(=O)[C@@H](C)C1 [cycloheximide],ARL-1 secretion,"[1]; HCT-8 cells, 15 μg/ml, serum-free medium, up to 8 hours",not affected; also recorded: did not significantly affect secretion
C[C@H]1CCC/C=C/[C@@H]2C[C@H](O)C[C@H]2[C@H](O)/C=C/C(=O)O1 [brefeldin A],ARL-1 secretion,"[1]; HCT-8 and NCI-460 cells, 0, 2, or 10 μg/ml, serum-free medium, 6 hour",not affected; also recorded: did not significantly affect secretion
C=CC=O [acrolein],features of induced cell death,[2],"LDH efflux and annexin V staining, a characteristic of oncosis"
"O=S(=O)(O)c1cc(N=C=S)ccc1C=Cc1ccc(N=C=S)cc1S(=O)(=O)O [DIDS, 4,4′-diisothiocyanatostilbene-2,2′-disulfonic acid]",ARL-1 secretion,[1]; [4],suppressed
Cl.N [NH4Cl],ARL-1 secretion,[1]; 50 mM added simultaneously with the fresh serum-free medium,increased
same,ARL-1 in freshly fed serum-free medium compared with control,[1]; 50 mM for 2 hours before switch to fresh serum-free medium,significant decrease
[Mg+2] [Mg^2+],ARL-1 secretion,[1]; [5],blocked
Nc1ncnc2c1ncn2[C@@H]1O[C@H](COP(=O)(O)OP(=O)(O)OP(=O)(O)O)[C@@H](O)[C@H]1O [ATP],ARL-1 secretion,[1]; [3],synergistic role in Ca^2+-mediated stimulation
same,ARL-1 secretion,[1]; [5],significantly stimulated
"COc1ccc(Cl)cc1C(=O)NCCc1ccc(S(=O)(=O)NC(=O)NC2CCCCC2)cc1 [GLIB, glibenclamide]",ARL-1 secretion,[1]; [4],suppressed
